Data taken from paper PMC11187126, “Structure and dynamics of the pyroglutamylated RF-amide peptide QRFP receptor GPR103” (Nature Communications, 2024).
Like-named read-outs stand apart in the source and are kept apart here. No end group written: not given here.

Target: T1, GPR103 Y29N-termA (Homo sapiens, UniProt Q96P65, Y29A)
T1 construct: we used human full-length QRFPR-encoding plasmids; expressed in transfected cells; host or cells: HEK293 cells, pCAGGS vector
T1 sequence (Q96P65 1-431 Y29A): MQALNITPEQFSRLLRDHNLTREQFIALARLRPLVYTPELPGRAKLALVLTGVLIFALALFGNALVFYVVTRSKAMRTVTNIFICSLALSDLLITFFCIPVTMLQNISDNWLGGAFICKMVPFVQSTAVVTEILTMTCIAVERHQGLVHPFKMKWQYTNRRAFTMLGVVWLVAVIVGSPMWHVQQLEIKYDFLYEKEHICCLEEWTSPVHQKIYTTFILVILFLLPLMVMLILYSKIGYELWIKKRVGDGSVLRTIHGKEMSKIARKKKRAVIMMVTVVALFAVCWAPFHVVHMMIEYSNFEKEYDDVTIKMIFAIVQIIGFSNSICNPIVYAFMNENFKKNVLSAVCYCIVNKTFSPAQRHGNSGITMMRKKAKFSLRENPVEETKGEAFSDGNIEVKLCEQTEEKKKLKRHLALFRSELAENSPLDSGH
Test: TGFα shedding assay; Exp. level WT (1:20)
Format: cell-based

- Emax (Exp. #1): 95.50 % WT
- Emax (Exp. #2): 84.01 % WT
- Emax (Exp. #3): 93.81 % WT
- Emax (mean, read-out: Emax): 91.1%
- EC50 (n = 3): 269 nM
- Emax (n = 3, read-out: Emax): 94 ± 2.9%
Substance: TSGPLGNLAEELNGYSRKKGGFSFRF-NH2 [QRFP26]
